Source: US11814366B2, “Antiviral compounds and use thereof” (UNIVERSITA DEGLI STUDI DI SIENA, priority 2018, dated 2023)

Experiments:
[1] = Cell viability (MTS) assay, Huh-7 cells; assay type: cell-based; conditions: human, conditions of the DENV-2 assay (Table 6)
Description: Cell viability was measured using the MITS [3-(4,5-dimethylthiazol-2-yl)-5-(3 carboxy methoxy phenyl)-2-(4-sulfophenyl)-2H-tetrazolium] assay. Cell cultures were seeded in 96-well plates and were incubated with different concentrations of compounds of the invention in triplicate under the same experimental conditions described for the antiviral assays. Cell viability was determined using the CellTiter 96 Proliferation Assay Kit (Promega, Madison, WI, USA) according to the manufacturer's instructions. Absorbances were measured using a Microplate Reader (Model 680, BIORAD) at 490 nm. The effect on cell viability at different concentrations of the compound was expressed as a percentage, by comparing absorbances of treated cells with those of cells incubated with culture medium and equal volumes of vehicle. The 50% cytotoxic concentrations (CC50) and 95% confidence intervals (CIs) were determined using Prism software (Graph-Pad Software, San Diego, CA).

DENV-2 = assay: DENV plaque reduction assay on Huh-7 cells; assay type: cell-based, Dengue virus; conditions: for SI selectivity index: DENV-2, CC50 divided by EC50; for EC50: Dengue virus, DENV2, Huh-7, DENV-2 infected cells
Description: The effect of compounds on DENV infection was evaluated by plaque reduction assay. Huh-7 cells were pre-plated 24 h in advance in 24-well plates at a density of 10^5 cells. Concentrations of compounds ranging from 50 μM to 0.0001 μM in DMSO were mixed with DENV-2 (MOI 0.01 pfu/cell) and incubated for 1 hour at 37° C. The mixtures were subsequently added to the cells, which were then incubated at 37° C. for 2 h. The virus inoculum was then removed and the cells washed and overlaid with a medium containing 1.2% methylcellulose (Sigma). After further incubation at 37° C. for 72 h cells were fixed and stained with 0.1% crystal violet in 20% ethanol and viral plaques counted. The effective concentration producing 50% reduction in plaque formation (EC50) were determined using Prism software by comparing drug-treated wells with wells treated with medium and DMSO. The selectivity index (SI) was calculated by dividing the CC50 by the EC50 value.

ZIKAV = assay: ZIKA virus plaque reduction assay on Vero cells; assay type: cell-based, Zika virus (PRVABC59); conditions: for SI selectivity index: ZIKAV, CC50 divided by EC50; for EC50 / EC90: Zika virus, Vero, ZIKAV infected cells
in vitro [2] = conditions: African green monkey
H1N1 = H1N1 inhibition assay on MDCK cells; assay type: cell-based, Influenza virus H1N1; conditions: for SI selectivity index: H1N1, CC50 divided by EC50; for EC50 / EC90: Influenza A virus, MDCK, H1N1 infected cells; for EC50: read-out: EC50; for EC90: read-out: EC90
Description: MDCK cells were pre-plated in 96-well plates. The following day, concentrations of compounds ranging from 50 μM to 0.0001 μM in DMSO were mixed with H1N1 (MOI 0.05 pfu/cell) and incubated for 1 hour at 37° C. The mixtures were subsequently added to the cells for 1 h at 37° C., after a washout, cells were overlaid with MEM for 16 h at 37° C. Cells were then fixed and subjected to specific immunostaining using a Flu A monoclonal antibody (Merck 5001) in order to visualize infected cells. EC50 were calculated by comparing numbers of infected cells in treated and untreated wells. The effective concentration producing 50% reduction in plaque formation (EC50) was determined using Prism software. The selectivity index (SI) was calculated by dividing the CC50 by the EC50 value.

HSV-2 = HSV-2 plaque reduction assay on Vero cells; assay type: cell-based, Herpes 2 virus (HSV-2); conditions: for SI selectivity index: HSV-2, CC50 divided by EC50; for EC90 / EC50: Human alphaherpesvirus 2, Vero, HSV-2 infected cells; for EC90: 90% effective concentration; for EC50: compound mixed with virus 1 hour at 37° C.
in vitro [3] = conditions: dog
HIV Strain NL4-3 = assay: HIV-1 inhibition assay, strain NL4-3, TZM-bl cells, CPRG readout; assay type: cell-based
Description: The human TZM-bl indicator cell line (obtained from the NIH AIDS reagents program, cat. Nr 8129, www.aidsreagent.org) was maintained at 37° C. and 5% CO2 in Dulbecco's modified Eagle's medium (DMEM) medium containing 10% fetal bovine serum, 50 μg/ml penicillin, and 50 μg/ml streptomycin. The HIV-1 laboratory strains NL (AD8) (NIH AIDS reagents program, cat. Nr, 11346) and NL4.3 (NIH AIDS reagents program, cat. Nr. 114) were titrated as previously reported by Tiberi et al (2014). Briefly, serial 5-fold dilutions of each virus were made in quadruplicate wells in 96-well culture plates, in a total volume of 100 μl of growth medium (DMEM), for a total of 8 dilution steps. Freshly trypsinized cells (20,000 cells in 100 μl of growth medium containing 75 μg/mL DEAE-dextran) were added to each well, and the plates were incubated at 37° C. in a humidified 5% CO2-95% air environment. After 48 h of incubation, the medium was removed and viral infection was quantified using a β-galactosidase (CPRG) assay (Roche). Twenty thousand TZM-bl cells/well were seeded in 96-well plates in complete DMEM supplemented with 30 μg/ml DEAE-dextran (Sigma-Aldrich). Three hundred times the 50% tissue culture infective dose (TCID50)/ml of each strain was pretreated for 1 h at 37° C. with six serial dilutions (10000 nM, 2000 nM, 400 nM, 80 nM, 16 nM, 3.2 nM) and then added to the cells. Vehicle (0.1% dimethyl sulfoxide [DMSO])-treated cells served as a negative control. […] After 2 days, viral infection was quantified using a CPRG assay (Roche cat nr 11379119103). The inhibitory curves were fitted by nonlinear regression, allowing for the calculation of the 50% effective concentration (EC50) using the Prism software. To evaluate the cell toxicity of the compounds, the metabolic XTT [2,3-bis-(2-methoxy-4-nitro-5-sulfophenyl)-2H-tetrazolium-5-carboxanilide] test (Sigma-Aldrich) was performed according to the manufacturer's instructions.

Cytotoxicity, XTT test = conditions: human
HIV Strain AD8 = assay: HIV-1 inhibition assay, strain NL(AD8), TZM-bl cells, CPRG readout; assay type: cell-based
[4] = CC50, conditions of the HSV-2 assay (Table 2)
[5] = CC50, conditions of the ZIKAV assay (Table 3)
[6] = Human immunodeficiency virus 1, NL43, virus pretreated 1 h at 37° C. with compound
[7] = virus pretreated 1 h at 37° C. with compound

Molecule: O=C1NC(=S)N(Cc2ccccn2)C(=O)/C1=C\c1ccc(-c2ccc(-c3nnn[nH]3)cc2)[nH]1 [Compound 15p, (Z)-5-((5-(4-(1H-tetrazol-5-yl)phenyl)-1H-pyrrol-2-yl)methylene)-1-(pyridin-2-ylmethyl)-2-thioxodihydropyrimidine-4,6(1H,5H)-dione]
- CC50 [1]: 89 µM
- SI selectivity index (DENV-2): 7.3
- EC50 (DENV-2): 12.2 µM

Molecule: N#Cc1ccc(-c2ccc(/C=C3\C(=O)NC(=S)N(CCc4ccccc4)C3=O)[nH]2)cc1 [Compound 15d, 4-(5-((Z)-(tetrahydro-4,6-dioxo-3-phenethyl-2-thioxopyrimidin-5(6H)-lidene)methyl)-1H-pyrrol-2-yl)benzonitrile]
- SI selectivity index (ZIKAV): >272.7
- EC50 (ZIKAV): 1.11 µM
- EC90 (ZIKAV): 26.6 µM
- CC50 (in vitro [2]; [4]): > 300 µM
- CC50 (in vitro [2]; [5]): > 300 µM
- SI selectivity index (H1N1): >12
- EC50 (H1N1): 25 µM
- EC90 (H1N1): 372 µM
- SI selectivity index (HSV-2): >8.7
- EC90 (HSV-2): 88.2 µM
- EC50 (HSV-2): 34.5 µM
- CC50 (in vitro [3]): > 300 µM

Molecule: O=C1NC(=S)NC(=O)C1=Cc1ccc(-c2ccc(C(=O)O)c(O)c2)[nH]1 [Compound 17b, 4-(5-((4,6-dioxo-2-thioxotetrahydropyrimidin-5(2H)-ylidene)methyl)-1H-pyrrol-2-yl)-2-hydroxybenzoic Acid]
- EC50 (HIV Strain NL4-3; [6]): 0.16 µM
- CC50 (Cytotoxicity, XTT test): > 20 µM
- CC50 (in vitro [2]; [4]): > 300 µM
- SI selectivity index (HSV-2): >429.8
- EC90 (HSV-2): 7.47 µM
- EC50 (HSV-2): 0.698 µM

Molecule: O=C1NC(=S)N(CCc2ccc(O)cc2)C(=O)/C1=C\c1ccc(-c2ccc(C(=O)O)c(O)c2)[nH]1 [Compound 15f, (Z)-2-hydroxy-4-(5-((1-(4-hydroxyphenethyl)-4,6-dioxo-2-thioxotetrahydropyrimidin-5(2H)-ylidene)methyl)-1H-pyrrol-2-yl)benzoic Acid]
- CC50 [1]: 28 µM
- SI selectivity index (DENV-2): 3.6
- EC50 (DENV-2): 7.8 µM

Molecule: O=C(O)c1ccc(-c2ccc(CC3C(=O)NC(=S)N(CCc4ccccc4)C3=O)[nH]2)cc1O (stereo not drawn) [Compound 18, 4-(5-((hexahydro-4,6-dioxo-1-phenethyl-2-thioxopyrimidin-5-yl)methyl)-1H-pyrrol-2-yl)-2-hydroxybenzoic Acid]
- SI selectivity index (ZIKAV): >849.8
- EC50 (ZIKAV): 0.0353 µM
- EC90 (ZIKAV): 0.308 µM
- CC50 (in vitro [2]; [4]): > 300 µM
- CC50 (in vitro [2]; [5]): > 300 µM
- SI selectivity index (H1N1): >238
- EC50 (H1N1): 1.26 µM
- EC90 (H1N1): 14.9 µM
- SI selectivity index (HSV-2): >417.2
- EC90 (HSV-2): 0.128 µM
- EC50 (HSV-2): 0.712 µM
- CC50 (in vitro [3]): > 300 µM

Molecule: O=C(O)c1ccc(-c2ccc(/C=C3\SC(=S)N(Cc4ccc(Cl)cc4)C3=O)[nH]2)cc1O [Compound 7b, (Z)-4-(5-((3-(4-chlorobenzyl)-4-oxo-2-thioxothiazolidin-5-ylidene)methyl)-1H-pyrrol-2-yl)-2-hydroxybenzoic Acid]
- EC50 (HIV Strain AD8; Human immunodeficiency virus 1, virus pretreated 1 h at 37° C. with compound): 0.532 µM
- CC50 (Cytotoxicity, XTT test; TZM-bl cells): > 20 µM

Molecule: O=C1NC(=S)N(CCc2ccccc2)C(=O)/C1=C/c1ccc(-c2ccc(-c3nnn[nH]3)cc2)[nH]1 [Compound 15c, (Z)-5-((5-(4-(1H-tetrazol-5-yl)phenyl)-1H-pyrrol-2-yl)methylene)-dihydro-3-henethyl-2-thioxopyrimidine-4,6(1H,5H)-dione]
- SI selectivity index (ZIKAV): >12000
- EC50 (ZIKAV): 0.0258 µM
- EC90 (ZIKAV): 0.365 µM
- CC50 (in vitro [2]; [4]): > 300 µM
- CC50 (in vitro [2]; [5]): > 300 µM
- SI selectivity index (H1N1): >379
- EC50 (H1N1): 0.793 µM
- EC90 (H1N1): 1.76 µM
- SI selectivity index (HSV-2): >1435
- EC90 (HSV-2): 0.618 µM
- EC50 (HSV-2): 0.209 µM
- CC50 [1]: 70 µM
- SI selectivity index (DENV-2): 20.6
- EC50 (DENV-2): 3.4 µM
- CC50 (in vitro [3]): > 300 µM

Molecule: O=C1NC(=S)N(Cc2ccccc2)C(=O)/C1=C\c1ccc(-c2ccc(C(=O)O)c(O)c2)[nH]1 [Compound 15a, (Z)-4-(5-((1-benzyl-4,6-dioxo-2-thioxotetrahydropyrimidin-5(2H)-ylidene)methyl)-1H-pyrrol-2-yl)-2-hydroxybenzoic Acid]
- EC50 (HIV Strain NL4-3; [6]): 0.217 µM
- CC50 (Cytotoxicity, XTT test): > 20 µM

Molecule: Cc1nnc(C(=O)NC(C)(C)c2nc(C(=O)NCc3ccc(F)cc3)c(O)c(=O)n2C)o1 [Ral, raltegravir, reference compound]
- EC50 (HIV Strain NL4-3; [6]): 0.021 µM
- CC50 (Cytotoxicity, XTT test): > 20 µM

Molecule: O=C1NC(=S)NC(=O)C1=Cc1ccc(-c2cc(C(F)(F)F)ccc2Cl)[nH]1 [Compound 17a, 5-((5-(2-chloro-5-(trifluoromethyl)phenyl)-1H-pyrrol-2-yl)methylene)-2-thioxodihydropyrimidine-4,6(1H,5H)-dione]
- CC50 (Cytotoxicity, XTT test): > 20 µM

Molecule: maraviroc [reference compound]
- EC50 (HIV Strain NL4-3; [7]): > 20 µM
- EC50 (HIV Strain AD8; [7]): 0.0367 µM
